In patent US20090247647A1, “Method of Stimulating Proteoglycan Synthesis in Cells” (priority 2006, published 2009):

System: avian growth plate (GP) chondrocytes
Test: Proteoglycan levels (dimethylmethylene blue assay) in primary growth plate chondrocyte cultures treated with vitamin D3 metabolites
Format: cell-based, hybrid broiler-strain chickens
Experimental: Time and dosage-dependent effects of 1,25(OH)2 Vitamin D3 and 24,25(OH)2 Vitamin D3 on primary cultures of pre- and post-confluent avian growth plate (GP) chondrocytes were examined. Cultures were grown either in a serum-containing culture medium designed to closely mimic normal GP extracellular fluid (DATP5) or a serum-free culture medium. A variety of cellular parameters were measured including proteoglycan (PG), lactate dehydrogenase (LDH) and alkaline phosphatase (ALP) activity and calcium and phosphate mineral deposition in the extracellular matrix were also measured.
To develop the cell cultures, epiphyseal growth plates were dissected from the tibiae of a large number of 6-8-week-old hybrid broiler-strain chickens. The plates were pooled and the chondrocytes isolated. For these studies, the isolated cells were distributed into 320 identical primary cultures grown in 35 mm dishes in DMEM (2 ml per dish) with 10% fetal bovine serum for the first 3-4 days. Culture media were changed and a supplement of fresh ascorbic acid (25-50 μg/ml) added every 3-4 days for the duration of the experiments. From day 7 onward for 160 of the cultures, the medium was changed to DATP5 mineralization medium. To the other 160 dishes on day 7 the medium was changed to DMEM:HL-1 (1:1) and from day 10 onward to HL-1 serum-free medium (Biowhittaker, Walkersville, Md.). HL-1 chemically defined proprietary media contains transferrin, testosterone, sodium selenite, ethanolamine, saturated and unsaturated fatty acids, and stabilizing proteins (less than 30 μg/ml) and is supplemented with 10 mM β-glycerophosphate. […] All culture media contained 100 IU/ml of penicillin, 100 μg/ml streptomycin, and 0.25 μg/ml amphotericin B.
Administration of the vitamin D3 metabolites was initiated either before the cells attained confluence (Day 7, pre-confluent tests), or after they had become confluent (Day 14, post-confluent tests), and continued as indicated. Stock solutions (2 mM) of the vitamin D3 metabolites were prepared and further diluted in ethanol so that 2 μl of the test solution was added to 2 ml of culture medium.
To analyze biochemical activities, cells were harvested from the mm dishes in 1 ml TMT buffer (50 mM Tris, pH 7.5, 0.5 mM MgCl2, 0.05% Triton X-100), the samples being sonicated in a water-bath. Aliquots were taken from each sample for analysis of the following seven parameters: alkaline phosphatase (ALP) and lactate dehydrogenase (LDH) activities, Hoechst DNA, Lowry protein, proteoglycan (PG) and Ca^2+ and Pi mineral content. […] Bovine serum albumin was used as a standard. Proteoglycan content of the cell matrix was analyzed using the dimethylmethylene blue reagent 11 measuring the absorbency difference at 520 and 589 nm. The assay is based on the ability of the sulfated glycosaminoglycans to bind to the cationic dye, dimethylmethylene blue, in solution.
Thus within each sample, the seven parameters were analyzed and subsequently compared. Overall statistical analysis of differences between the various treatment parameters was performed using ANOVA with post hoc Tukey HSD multiple comparisons.

[1] = pre-confluent cultures, serum-containing DATP5 medium, early exposure (Day 7-17)

Row | Structure (SMILES) | effect of high levels on proteoglycan levels (post-confluent treatment (from Day 14), both serum-containing and serum-free cultures) | effect on proteoglycan levels [1] | increase in proteoglycan levels over the control (pre-confluent cultures, serum-containing DATP5 medium, early exposure (Day 7-17), 10 nM) | effect of supra-physiological levels on proteoglycan levels (pre-confluent cultures, serum-free HL-1 medium, 10 nM) | maximal stimulation of proteoglycan levels (pre-confluent cultures, serum-free HL-1 medium, Day 24) | effect on proteoglycan (post-confluent exposure (from Day 14)) | effect on proteoglycan levels (pre-confluent cultures, serum-containing DATP5 medium, longer exposure) | concentration of maximal stimulation of proteoglycan levels (pre-confluent cultures, serum-free HL-1 medium) | effect on proteoglycan formation (pre-confluent cultures, serum-free media) | effect of supra-physiological levels on proteoglycan formation (pre-confluent cultures, serum-free media, 100 nM) | maximal effects on proteoglycan formation relative to those with 1,25(OH)2D3 (pre-confluent cultures, serum-free media, at 10 nM)
1 | C=C1/C(=C\C=C2/CCC[C@]3(C)[C@@H]([C@H](C)CCCC(C)(C)O)CC[C@@H]23)C[C@@H](O)C[C@@H]1O [1,25(OH)2D3, 1,25 Hydroxyvitamin D3] | no longer inhibitory, but actually increased proteoglycan levels | marked dosage-dependent increase | more than four-fold | marked reduction in proteoglycan levels | ~7 fold |  |  |  |  |  | 
2 | C=C1CC[C@H](O)C/C1=C/C=C1\CCC[C@]2(C)[C@@H]([C@H](C)CC[C@@H](O)C(C)(C)O)CC[C@@H]12 [24,25(OH)2D3, 24,25 Hydroxyvitamin D3] |  | minimal stimulation |  |  |  | only small effects | significant increases in proteoglycan levels, equal to or greater than those caused by 1,25(OH)2D3 | 10 nM | stimulated proteoglycan formation | inhibitory to proteoglycan formation | only about half
